Test [1] has as its system RAW264.7 siRNA cell lines. Put plainly: Cytokine production in stably transfected RAW264.7 siRNA (MyD88, TRIF, LUC) cell lines. The test is classed as cell-based, mouse. To be noted: for potency for TNFα production: 20 hours. The procedure: Exponentially growing RAW264.7 cells are stably transfected with FuGene 6 by conventional methods in Optimem (Roche, Indianapolis Ind.) with psiRNA-mTICAM1, psiRNA-mMyD88, or psiRNA-LUC (irrelevant control) plasmids containing shRNA sequences for protein knockdown, a Zeocin resistance gene and a GFP coding sequence (InVivoGen, San Diego, Calif.). Transfection efficiency after selection is determined by percent GFP positive cells using the ImageStream.
RNA interference (RNAi) is utilized to disrupt expression of specific genes that are involved in TLR signaling pathways: […] and MyD88. RAW264.7 siRNA cell lines are prepared using commercially available plasmids (Invivogen). These plasmids contain a Zeocin selection marker, a sequence coding for GFP and the sequence coding for shRNA for knockdown. Once the cells are efficiently transfected, stable cell lines are generated through antibiotic selection. Purity of cultures is determined by GFP+ cells within the culture system. An irrelevant plasmid is also used to stably transfect cells as a control.
To determine whether TRIF or MyD88 are required for the cytokine response after stimulation with L and D isomers, stably transfected siRNA cell lines are stimulated for 20 hours (in an assay similar to the MM6 potency assay) or 4 hours (to capture MyD88 induced cytokine responses) and cellular supernatants are assayed for TNFα (MyD88) and IP-10 (TRIF). Twenty hours post-stimulation, the irrelevant control, LUC cell line has a similar IP-10 induction pattern as the wt RAW264.7 cells shown previously. […] When TRIF is intact (in MyD88 knockdown cell lines) the IP-10 levels remain dose responsive and total cytokine is increased above the irrelevant control (LUC). Other assay systems (including human and mouse systems) support the hypothesis that both L and D isomers are efficient at inducing TRIF mediated cytokines.
In order to better discriminate the MyD88 requirement for TNFα production, siRNA knockdown cell lines are examined for TNFα production after four hours of AGP stimulation (FIG. 35). […]

Test [2] has as its system human monocyte-derived dendritic cells. Put plainly: IL-12p70 and IL-23 induction in human monocyte-derived dendritic cells. It is filed as cell-based. The procedure:
Peripheral blood mononuclear cells (PBMCs) are isolated from the blood of healthy donors via a Ficoll Hypaque 1.077 gradient and treated with agonists or are used to isolate adherent monocytes in monocyte media (RPMI 1640 (ATCC), 10% human AB serum (Lonza/BioWhittaker), 100 U/mL penicillin/100 ug/mL streptomycin (Sigma), 50 uM 2-mercaptoethanol (Sigma) as described (Stover et al. 4440-49; Kawai et al. 5887-94; Gervassi et al. 7231-39). Monocyte-derived macrophages are produced by incubating adherent monocytes for 5 days in monocyte media with 50 ng/mL rhM-CSF (R&D Systems) with media changes at day 3 and day 5 before agonist treatment. Monocyte-derived dendritic cells (DC) are produced by incubating adherent monocytes for 7 days in monocyte media with 10 ng/mL rhGM-CSF and 10 ng/mL rhIL-4 (R&D Systems) with media changes on day 3 and day 6.
Induction of inflammatory cytokines and maturation of dendritic cells (DC) contribute to the promotion of a robust immune response during the administration of an adjuvanted vaccine. Therefore, the capacity of CRX527 and CRX-547 to induce IL-12p70 in human DCs is compared. The induction of IL-12p70 promotes the development of the Th1 helper T cell lineage and favors development of a cell-mediated immune response (Goriely, Neurath, and Goldman 81-86; Gutcher and Becher 1119-27). […]

The target of test [3] is T1, muTLR4, muMD-2, and muCD14 (Mus musculus, UniProt Q9JHF9+Q9QUK6).
T1 construct: expressed in transfected cells; host or cells: HEK293
T1 sequence (Q9QUK6 26-835): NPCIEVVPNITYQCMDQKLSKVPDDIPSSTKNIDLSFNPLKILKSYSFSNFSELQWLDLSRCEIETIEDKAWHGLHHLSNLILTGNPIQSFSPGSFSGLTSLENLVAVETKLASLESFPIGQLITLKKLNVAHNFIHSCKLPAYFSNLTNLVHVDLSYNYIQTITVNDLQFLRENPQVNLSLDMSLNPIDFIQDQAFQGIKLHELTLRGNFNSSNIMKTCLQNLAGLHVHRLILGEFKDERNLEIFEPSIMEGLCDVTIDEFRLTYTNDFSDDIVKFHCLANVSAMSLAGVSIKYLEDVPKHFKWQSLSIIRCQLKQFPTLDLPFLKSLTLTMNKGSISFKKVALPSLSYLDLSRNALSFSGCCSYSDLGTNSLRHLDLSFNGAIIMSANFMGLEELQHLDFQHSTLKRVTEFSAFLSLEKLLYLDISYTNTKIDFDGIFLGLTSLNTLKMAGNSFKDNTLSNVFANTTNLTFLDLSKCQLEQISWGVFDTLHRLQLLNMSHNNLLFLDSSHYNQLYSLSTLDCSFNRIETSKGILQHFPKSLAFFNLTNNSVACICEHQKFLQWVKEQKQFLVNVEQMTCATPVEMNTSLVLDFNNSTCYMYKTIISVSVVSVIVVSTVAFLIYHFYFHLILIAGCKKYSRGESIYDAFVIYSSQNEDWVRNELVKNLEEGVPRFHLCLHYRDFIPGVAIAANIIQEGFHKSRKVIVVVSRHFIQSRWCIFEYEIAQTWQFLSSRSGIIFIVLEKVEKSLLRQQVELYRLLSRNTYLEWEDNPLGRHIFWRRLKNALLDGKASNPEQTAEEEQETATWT
T1 sequence (Q9JHF9 19-160): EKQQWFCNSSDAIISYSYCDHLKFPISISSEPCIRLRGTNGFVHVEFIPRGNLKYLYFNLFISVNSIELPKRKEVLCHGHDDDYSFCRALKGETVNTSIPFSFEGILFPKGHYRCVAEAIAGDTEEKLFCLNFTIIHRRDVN
Put plainly: NFκB reporter activity in HEK293 cells transfected with muTLR4, muMD-2, muCD14. The test is classed as cell-based. To be noted: HEK293 muTLR4/muMD-2/muCD14.

For the compound `CCCCCCCCCCCC(CC(=O)NC(COC1OC(CO)C(OP(=O)(O)O)C(OC(=O)CC(CCCCCCCCCCC)OC(=O)CCCCCCCCC)C1NC(=O)CC(CCCCCCCCCCC)OC(=O)CCCCCCCCC)C(=O)O)OC(=O)CCCCCCCCC.CCN(CC)CC` (stereo not drawn) [CRX-527], the “potency for TNFα production” value in test [1] (MyD88 or TRIF knocked down) is listed as “same increased potency”; in test [1] (irrelevant control (LUC)), “more potent”. Also, in test [1] (four hours), the “potency at inducing TNFα versus equivalent dose of CRX-547” value is listed as “more potent”.

As for `CCCCCCCCCCCC(CC(=O)NC(COC1OC(CO)C(OP(=O)(O)O)C(OC(=O)CC(CCCCCCCCCCC)OC(=O)CCCCCCCCC)C1NC(=O)CC(CCCCCCCCCCC)OC(=O)CCCCCCCCC)C(=O)O)OC(=O)CCCCCCCCC.CCN(CC)CC` (stereo not drawn) [CRX-547], in test [2] (dendritic cells, compared with CRX-527), the IL-23 expression result was “reduced virtually to base-line levels”. For the same compound, the IL-12p70 response result in test [2] (human monocyte-derived DC, compared to CRX-527 and LPS) was “significantly reduced”. In test [3], the NFκB reporter activity entry is “more similar to CRX-527 and LPS”.
